What was measured:
[1] = system: MELOE-1 specific CD4+ T cells; experiment: MELOE-1 CD4+ T cell responses in PBMC from healthy donors: restimulation of microcultures with overlapping peptides, CD4/TNF-α staining; type: cell-based, human; settings: for Microcultures containing MELOE-1 specific CD4+ T cells (TNF-α production): positive/tested microcultures
Description: PBMC from healthy donors were stimulated with 10 μM of MELOE-1. After 14 days, the presence of CD4 T cells specific for the different regions of MELOE-1 was assessed by restimulating cells with MELOE-12-21, MELOE-111-30, MELOE-118-37 and MELOE-126-46 peptides, followed by CD4/TNF-α double staining and flow cytometry analysis. Between brackets is indicated the mean % of TNF-α producing CD4 T cells, in positive microcultures. NA: not available.
(§1) PBMC from healthy donors or melanoma patients (2·10^5 cells/well) were cultured for 14 days with 10 μM of MELOE-1 whole antigen (46 amino acids) in RPMI medium supplemented with 8% HS, 50 IU/ml of rIL-2 (Chiron, France) and L-Glutamin, in 96-well multiplates. Microcultures were then restimulated individually with each overlapping peptide (MELOE-12-21, MELOE-111-30, MELOE-118-37, MELOE-12646 or MELOE-122-46 for melanoma patients) in the presence of 10 μg/mL brefeldin A for 5 hours and the percentage of CD4^+ specific T cells was assessed by TNF-α, IFN-γ or IL-4 intracellular staining. A negative control without peptide was included in all experiments.
Our purpose was to look for the existence of class II helper epitopes all along MELOE-1 sequence (SEQ ID NO:20), in order to document the immunogenicity of the different regions of this melanoma antigen. We stimulated 2·10^7 PBMC from seven healthy donors with MELOE-1 whole antigen and tested, after a 14-day culture period the presence of CD4 T cells specific for each region of the protein. Microcultures were screened for TNFα production by CD4+ T cells, after restimulation with four MELOE-1 derived overlapping peptides (Table I), in an autopresentation assay. […] On the contrary, the central region 18-37, containing an already described DR11-restricted epitope (24-37) located just at the end of this 20-mer peptide (Rogel et al., 2011), induced specific responses in microcultures deriving from only 2/7 donors (HD9 and HD17, both expressing the DR11 element). In these two donors, we detected 6 and 7% of positive microcultures, containing between 0.6 to 3.7% of TNFα producing CD4 T cells.

[2] = system: MELOE-1 specific CD4 T cells; experiment: MELOE-1 CD4+ T cell responses in PBMC from melanoma patients: restimulation with peptides, CD4/IFN-γ (Th1) and CD4/IL4 (Th2) staining; type: cell-based, human; settings: for mean % of cytokine producing CD4 T cells, in positive microcultures (IFN-γ): Th1; for mean % of cytokine producing CD4 T cells, in positive microcultures (IL4): Th2; for Th1 responses (IFN-γ positive microcultures) / Th2 responses (IL4 positive microcultures): positive/tested microcultures
Description: PBMC from melanoma patients were stimulated with 10 μM of MELOE-1. After 14 days, the presence of CD4 T cells specific for the different regions of MELOE-1 was assessed by restimulating cells with MELOE-12-21, MELOE-111-30 and MELOE-122-46 peptides, followed by CD4/IFN-γ double staining for the detection of Th1 responses, and by CD4/IL4 double staining for Th2 responses. Between brackets is indicated the mean % of cytokine producing CD4 T cells, in positive microcultures.
as §1
In order to confirm the immunogenicity of each MELOE-1 regions in melanoma patients, we stimulated melanoma patients PBMC with the MELOE-1 whole protein, and tested the reactivity of stimulated lymphocytes towards the three most immunogenic regions: 2-21, 11-30, and 22-46. For this study, instead of challenging microcultures with the 18-37 peptide, that appeared poorly immunogenic, we extended the C-terminus region from 26-46 to 22-46, in order to also detect responses to our previously described HLA-DR11-restricted epitope (24-37). […] We tested the induction of CD4 specific responses from MELOE-1 stimulated PBMC of […] melanoma patients. We documented CD4 responses specific for the central region of MELOE-1 (11-30) for 7/9 patients, whereas responses specific for MELOE-12-21 and MELOE-122-46 were respectively detected in 4/9 and 5/9 patients (Table III). These responses were mainly Th1 responses (IFN-g production) while less frequent Th2 responses specific for the three regions of MELOE-1 were detected in 3/9 patients for MELOE-12-21, 2/9 patients for MELOE-111-30 and 5/9 patients for MELOE-122-46 (Table III). […] Concerning Th2 responses, much less frequent, the C-term region appeared to induce more frequently the growth of IL-4 producing CD4 T cells than the two other regions (FIG. 2A). […] In summary, stimulation of patient's PBMC with MELOE-1 induced Th1 responses specific for diverse epitopes located all along the protein sequence, and among the different regions, the central region (11-30) and the C-term region (22-46) appeared to be especially immunogenic in term of frequency of responses.

For TSREQFLPSEGAACPPWHPS [MELOE-111-30], the “frequency of positive microcultures compared with the three other regions of MELOE-1” value ([1]; all healthy donors, FIG. 1, p<0.0001) was “significantly higher”, the “mean % of TNF-α producing CD4 T cells, in positive microcultures” value (from here on “mean % of TNF-α producing CD4 T cells”) ([1]; donor HD9) was “(2.4% ± 1.5)” and the “Microcultures containing MELOE-1 specific CD4+ T cells (TNF-α production)” value ([1]; donor HD9 (DPβ1*0902/1501, DQβ1*0301, DRβ1*1104/1201)) was 13/96. For the same sequence, the “mean % of TNF-α producing CD4 T cells” value ([1]; donor HD17) was “(8.2% ± 6.5)”, the “Microcultures containing MELOE-1 specific CD4+ T cells (TNF-α production)” value ([1]; donor HD17 (DPβ1*0401/0301, DQβ1*0301/0603, DRβ1*1101/1301)) was 26/96 and the “mean % of TNF-α producing CD4 T cells” value ([1]; donor HD22) was “(3.9% ± 3.3)”. The “Microcultures containing MELOE-1 specific CD4+ T cells (TNF-α production)” value ([1]; donor HD22 (DPβ1*0401/1101, DQβ1*0202, DRβ1*0701)) was 2/96, the “mean % of TNF-α producing CD4 T cells” value ([1]; donor HD24) was “(2% ± 1.4)” and the “Microcultures containing MELOE-1 specific CD4+ T cells (TNF-α production)” value ([1]; donor HD24 (DPβ1*0401/0101, DQβ1*0501/0602, DRβ1*0101/1501)) was 46/96. For the same sequence, the “mean % of TNF-α producing CD4 T cells” value ([1]; donor HD25) was “(1.2% ± 0.7)”, the “Microcultures containing MELOE-1 specific CD4+ T cells (TNF-α production)” value ([1]; donor HD25 (DPβ1*0401/0402, DQβ1*0201, DRβ1*0301)) was 3/96 and the “mean % of TNF-α producing CD4 T cells” value ([1]; donor HD27) was “(5% ± 3.4)”. The “Microcultures containing MELOE-1 specific CD4+ T cells (TNF-α production)” value ([1]; donor HD27 (DQβ1*501/0201, DRβ1*0101/0301)) was 5/96, the “Microcultures containing MELOE-1 specific CD4+ T cells (TNF-α production)” value ([1]; donor HD28 (DRβ1*0301)) was 14/48 and the “donors in which CD4 responses against the region were detected” value ([1]; seven healthy donors) was “each tested donor”. The “Th1 responses, % of tested microcultures” value ([2]; 576 tested microcultures from melanoma patients, IFN-γ) was 10.8%, the “patients in which Th2 responses were detected” value ([2]; melanoma patients, IL4) was 2/9 and the “patients in which CD4 responses specific for the region were detected” value ([2]; melanoma patients, Table III, Th1 (IFN-γ)) was 7/9. For the same sequence, the “mean % of cytokine producing CD4 T cells, in positive microcultures (IFN-γ)” value (“mean % … (IFN-γ)” below) ([2]; patient Pt ≠ 1) was “(1.4% ± 0.7)”, the “mean % of cytokine producing CD4 T cells, in positive microcultures (IL4)” value ([2]; patient Pt ≠ 1) was “(1%)” and the “Th1 responses (IFN-γ positive microcultures)” value ([2]; patient Pt ≠ 1) was 10/48. For the same sequence, the “Th2 responses (IL4 positive microcultures)” value ([2]; patient Pt ≠ 1) was 1/48, the “mean % … (IFN-γ)” value ([2]; patient Pt ≠ 2) was “(1.6% ± 1.2)” and the “Th1 responses (IFN-γ positive microcultures)” value ([2]; patient Pt ≠ 2) was 16/96. The “Th2 responses (IL4 positive microcultures)” value ([2]; patient Pt ≠ 2) was 0/96, the “Th1 responses (IFN-γ positive microcultures)” value ([2]; patient Pt ≠ 3 (DPβ1*0201/2001, DQβ1*0303/0501, DRβ1*0101/0701)) was 5/96 and the “mean % … (IFN-γ)” value ([2]; patient Pt ≠ 3) was “(16.2% ± 33.2)”. The “Th2 responses (IL4 positive microcultures)” value ([2]; patient Pt ≠ 3) was 0/96, the “mean % … (IFN-γ)” value ([2]; patient Pt ≠ 4) was “(0.9% ± 0.5)” and the “Th1 responses (IFN-γ positive microcultures)” value ([2]; patient Pt ≠ 4) was 9/48. For the same sequence, the “Th2 responses (IL4 positive microcultures)” value ([2]; patient Pt ≠ 4) was 0/48, the “mean % … (IFN-γ)” value ([2]; patient Pt ≠ 5) was “(1.5% ± 1.1)” and the “Th1 responses (IFN-γ positive microcultures)” value ([2]; patient Pt ≠ 5) was 6/48. The “Th2 responses (IL4 positive microcultures)” value ([2]; patient Pt ≠ 5) was 0/48, the “mean % … (IFN-γ)” value ([2]; patient Pt ≠ 6) was “(1.5% ± 1.9)” and the “Th1 responses (IFN-γ positive microcultures)” value ([2]; patient Pt ≠ 6) was 5/48. For the same sequence, the “Th2 responses (IL4 positive microcultures)” value ([2]; patient Pt ≠ 6) was 0/48, the “Th1 responses (IFN-γ positive microcultures)” value ([2]; patient Pt ≠ 7) was 0/48 and the “Th2 responses (IL4 positive microcultures)” value ([2]; patient Pt ≠ 7) was 0/48. For the same sequence, the “mean % … (IFN-γ)” value ([2]; patient Pt ≠ 8) was “(2.9% ± 0.04)”, the “Th1 responses (IFN-γ positive microcultures)” value ([2]; patient Pt ≠ 8) was 2/48 and the “Th2 responses (IL4 positive microcultures)” value ([2]; patient Pt ≠ 8) was 0/48. The “mean % of cytokine producing CD4 T cells, in positive microcultures (IL4)” value ([2]; patient Pt ≠ 9) was “(0.6% ± 0.09)”, the “Th1 responses (IFN-γ positive microcultures)” value ([2]; patient Pt ≠ 9) was 0/48 and the “Th2 responses (IL4 positive microcultures)” value ([2]; patient Pt ≠ 9) was 9/48.

Source: US9475841B2, “Melanoma antigen peptide and uses thereof” (INSERM (INSTITUT NATIONAL DE LA SANTE ET DE LA RECHERCHE …, priority 2012, dated 2016)
